Laboratory results published in ChEMBL document CHEMBL5344477, “Discovery of benzoheterocyclic-substituted amide derivatives as apoptosis signal-regulating kinase 1 (ASK1) inhibitors” (RSC Med Chem, 2024).

Legend:
[1] = Metabolic stability in human liver microsomes assessed as clearance at 1 uM measured upto 90 mins by LC-MS/MS analysis; assay type: ADME, Microsome; conditions: read-out: CLH
[2] = Half life in Sprague-Dawley rat at 1 mg/kg, iv measured upto 24 hrs by LC-MS/MS analysis; assay type: ADME, organism-based; conditions: in vivo
[3] = Cmax in Sprague-Dawley rat at 5 mg/kg, po measured upto 24 hrs by LC-MS/MS analysis; assay type: ADME, organism-based; design: dose 5 mg/kg, time < 24 hrs, route po; conditions: in vivo
[4] = Cmax in Sprague-Dawley rat at 1 mg/kg, iv measured upto 24 hrs by LC-MS/MS analysis; assay type: ADME, organism-based; design: dose 1 mg/kg, time < 24 hrs, route iv; conditions: in vivo
[5] = Volume of distribution at steady state in Sprague-Dawley rat at 1 mg/kg, iv measured upto 24 hrs by LC-MS/MS analysis; assay type: ADME, organism-based; conditions: in vivo, read-out: Vdss
[6] = Half life in Sprague-Dawley rat at 5 mg/kg, po measured upto 24 hrs by LC-MS/MS analysis; assay type: ADME, organism-based; conditions: in vivo
[7] = AUClast in Sprague-Dawley rat at 1 mg/kg, iv measured upto 24 hrs by LC-MS/MS analysis; assay type: ADME, organism-based; design: dose 1 mg/kg, time < 24 hrs, route iv; conditions: in vivo
[8] = Metabolic stability in human liver microsomes assessed as half life at 1 uM measured upto 90 mins by LC-MS/MS analysis; assay type: ADME, Microsome
[9] = AUClast in Sprague-Dawley rat at 5 mg/kg, po measured upto 24 hrs by LC-MS/MS analysis; assay type: ADME, organism-based; design: dose 5 mg/kg, time < 24 hrs, route po; conditions: in vivo
[10] = Metabolic stability in rat liver microsomes assessed as clearance at 1 uM measured upto 90 mins by LC-MS/MS analysis; assay type: ADME, Microsome; conditions: read-out: CLH
[11] = Apparent […] clearance in Sprague-Dawley rat at 1 mg/kg, iv measured upto 24 hrs by LC-MS/MS analysis; assay type: ADME, organism-based; conditions: in vivo
[12] = Metabolic stability in rat liver microsomes assessed as half life at 1 uM measured upto 90 mins by LC-MS/MS analysis; assay type: ADME, Microsome
[13] = Oral bioavailability in Sprague-Dawley rat at 5 mg/kg measured upto 24 hrs by LC-MS/MS analysis; assay type: ADME, organism-based; conditions: in vivo

Row | Structure (SMILES) | CLint scaled at 1 µM [1] | half-life [2] | Cmax [3] | Cmax [4] | Vd [5] | half-life [6] | AUC(0-t) at 24 h [7] | half-life at 1 µM [8] | AUC(0-t) at 24 h [9] | CLint scaled at 1 µM [10] | CL/F [11] | half-life at 1 µM [12] | bioavailability [13]
1 | CC(C)n1cnnc1-c1cccc(NC(=O)c2cc3c(cc2F)OCC(=O)N3)n1 | 3 mL/min/kg | 1.11 h | 1260 ng/mL | 1040 ng/mL | 0.85 L/kg | 1.86 h | 1630 ng·h/mL | 9.74 h | 4290 ng·h/mL | 13.7 mL/min/kg | 10.2 mL/min/kg | 3.02 h | 56.4%
2 | CC(CO)n1cnnc1-c1cccc(NC(=O)c2cc3c(cc2F)OCC(=O)N3)n1 (stereo not drawn) | 9.8 mL/min/kg | 0.22 h | 27 ng/mL | 514 ng/mL | 1.25 L/kg | 1.55 h | 229 ng·h/mL | 2.96 h | 21 ng·h/mL | 19.5 mL/min/kg | 72.5 mL/min/kg | 2.12 h | 2.1%
3 | O=C(Nc1cccc(-c2nncn2C2CC2)n1)c1cc2c(cc1F)OCc1cncn1-2 | 21.7 mL/min/kg | – | – | – | – | – | – | 1.34 h | – | 181 mL/min/kg | – | 0.228 h | –
4 | CC(C)n1cnnc1-c1cccc(NC(=O)c2cc3c(cc2F)C(C)(C)CC(=O)N3)n1 | – | 0.99 h | 1420 ng/mL | 945 ng/mL | 1.07 L/kg | 2.03 h | 1200 ng·h/mL | – | 4560 ng·h/mL | – | 13.8 mL/min/kg | – | 75.9%
5 | CC(C)n1cnnc1-c1cccc(NC(=O)c2cc3c(cc2F)CCC(=O)N3C)n1 | 7.3 mL/min/kg | 0.86 h | 964 ng/mL | 594 ng/mL | 1.32 L/kg | 1.13 h | 668 ng·h/mL | 3.95 h | 2660 ng·h/mL | 34.3 mL/min/kg | 24.8 mL/min/kg | 1.2 h | 80.7%
6 | O=C1COc2cc(F)c(C(=O)Nc3cccc(-c4nncn4-c4ccccc4)n3)cc2N1 | 11.4 mL/min/kg | 3.15 h | 3000 ng/mL | 1580 ng/mL | 0.68 L/kg | 2.95 h | 5070 ng·h/mL | 2.55 h | 12100 ng·h/mL | 4.7 mL/min/kg | 3.33 mL/min/kg | 8.74 h | 47.9%
7 | CC(C)N1C(=O)COc2cc(F)c(C(=O)Nc3cccc(-c4nncn4C(C)C)n3)cc21 | 31.6 mL/min/kg | – | – | – | – | – | – | 0.917 h | – | 140 mL/min/kg | – | 0.297 h | –
8 | O=C(Nc1cccc(-c2nncn2C2CCCC2)n1)c1cc2c(cc1F)OCc1cncn1-2 | 82.7 mL/min/kg | – | – | – | – | – | – | 0.35 h | – | 230 mL/min/kg | – | 0.18 h | –
9 | CC(C)n1cnnc1-c1cccc(NC(=O)c2cc3c(cc2F)CCC(=O)N3)n1 | 5.8 mL/min/kg | 0.71 h | 334 ng/mL | 2080 ng/mL | 0.56 L/kg | 1.46 h | 1260 ng·h/mL | 4.98 h | 534 ng·h/mL | 13.3 mL/min/kg | 13.2 mL/min/kg | 3.12 h | 8.8%
10 | CC(C)n1cnnc1-c1cccc(NC(=O)c2cc3c(cc2F)OCc2cncn2-3)c1 | 63.3 mL/min/kg | 0.63 h | 445 ng/mL | 235 ng/mL | 2.61 L/kg | 1.13 h | 329 ng·h/mL | 0.458 h | 939 ng·h/mL | 378 mL/min/kg | 50.3 mL/min/kg | 0.11 h | 57.4%
11 | CC(C)n1cnnc1-c1cccc(NC(=O)c2cc3c(cc2F)CCCC(=O)N3C)n1 | – | 0.73 h | 582 ng/mL | 597 ng/mL | 1.56 L/kg | 2.37 h | 381 ng·h/mL | – | 2210 ng·h/mL | – | 43.7 mL/min/kg | – | 116%
12 | O=C1COc2cc(F)c(C(=O)Nc3cccc(-c4nncn4C4CCCC4)n3)cc2N1 | 94.3 mL/min/kg | 0.86 h | 1490 ng/mL | 1080 ng/mL | 0.97 L/kg | 2.36 h | 919 ng·h/mL | 0.307 h | 3390 ng·h/mL | 70.8 mL/min/kg | 18.2 mL/min/kg | 0.585 h | 77.7%
13 | O=C(Nc1cccc(-c2nncn2-c2ccccc2)n1)c1cc2c(cc1F)OCc1cncn1-2 | 26.4 mL/min/kg | – | – | – | – | – | – | 1.1 h | – | 160 mL/min/kg | – | 0.258 h | –
14 | O=C(Nc1cccc(-c2nncn2CC2CC2)c1)c1cc2c(cc1F)OCc1cncn1-2 | 25.8 mL/min/kg | 0.55 h | 635 ng/mL | 812 ng/mL | 1.08 L/kg | 0.97 h | 431 ng·h/mL | 1.12 h | 865 ng·h/mL | 248 mL/min/kg | 38.5 mL/min/kg | 0.167 h | 40.2%
15 | CC(C)n1cnnc1-c1cccc(NC(=O)c2cc3c(cc2F)OCc2cncn2-3)n1 | 16.3 mL/min/kg | 0.67 h | 794 ng/mL | 793 ng/mL | 1.22 L/kg | 1.1 h | 529 ng·h/mL | 1.78 h | 2280 ng·h/mL | 222 mL/min/kg | 31.3 mL/min/kg | 0.187 h | 86.9%
16 | O=C(Nc1cccc(-c2nncn2CC2CC2)n1)c1cc2c(cc1F)OCc1cncn1-2 | 24.1 mL/min/kg | 0.75 h | 3520 ng/mL | 804 ng/mL | 1.13 L/kg | 1.04 h | 706 ng·h/mL | 1.2 h | 7820 ng·h/mL | 151 mL/min/kg | 23.7 mL/min/kg | 0.275 h | –
17 | CC(C)n1cnnc1-c1cccc(NC(=O)c2cc3c(cc2F)OCC(=O)N3C)n1 | 5.1 mL/min/kg | 1.62 h | 1830 ng/mL | 779 ng/mL | 1.49 L/kg | 2.11 h | 2220 ng·h/mL | 5.67 h | 10900 ng·h/mL | 16.8 mL/min/kg | 7.5 mL/min/kg | 2.46 h | 97.9%
18 | CC(CO)n1cnnc1-c1cccc(NC(=O)c2cc3c(cc2F)CCCC(=O)N3)n1 (stereo not drawn) | 1.8 mL/min/kg | 0.28 h | – | 262 ng/mL | 3.01 L/kg | – | 108 ng·h/mL | 16.3 h | – | 9.5 mL/min/kg | 154 mL/min/kg | 4.37 h | –
19 | CC(C)n1cnnc1-c1cccc(NC(=O)c2cc3c(cc2F)CCC(=O)N3)c1 | 1.7 mL/min/kg | 0.68 h | 58 ng/mL | 274 ng/mL | 3.41 L/kg | 1.79 h | 222 ng·h/mL | 17.3 h | 157 ng·h/mL | 7.5 mL/min/kg | 74.5 mL/min/kg | 5.49 h | 15.1%
20 | Cc1cc(F)c(C(=O)Nc2cccc(-c3nncn3C(C)C)n2)cc1-n1cnc(C2CC2)c1 [SELONSERTIB] | – | – | 6030 ng/mL | 3030 ng/mL | 0.27 L/kg | – | – | – | 38300 ng·h/mL | – | – | – | 129%
